Data from patent publication US20120004166A1, “ARYLOXYALKYLENE-SUBSTITUTED HYDROXYPHENYLHEXYNOIC ACIDS, PROCESS FOR PREPARATION THEREOF AND USE THEREOF AS A MEDICAMENT” (SANOFI, priority 2010, published 2012).

These compounds were tested against T1, GPCR GPR40 (Rattus norvegicus, UniProt Q8K3T4) (assay: In vitro FLIPR assay with recombinant cells which express the GPCR GPR40). Conditions: recombinant HEK293 cells expressing rat GPR40; agonist-induced change in intracellular Ca2+ (Fluo-4, FLIPR); 100% = 10 μM linoleic acid.
T1 construct: expressed in transfected cells; host or cells: HEK293
Type: cell-based
Description: In Vitro FLIPR Assay with Recombinant Cells which Express the GPCR GPR40
Function-testing assays were performed by means of the FLIPR technique (“Fluorescence Imaging Plate Reader”, Molecular Devices Corp.). To this end, agonist-induced changes in the intracellular concentration of Ca^2+ were determined in recombinant HEK293 cells which expressed the GPCR GPR40 (species: rat). For the studies, cells were sown into 96-well microtiter plates (60 000 cells/well) and left to grow overnight. The medium was removed and the cells were incubated in buffer which contained the fluorescent dye Fluo-4. After this loading with dye, the cells were washed, test substance was added and changes in the intracellular Ca^2+ concentration were measured in the FLIPR unit. Results were presented as the percentage change relative to the control (0%: no test substance added; 100%: 10 μM reference agonist linoleic acid added) and used to calculate dose/effect curves, and EC50 values were determined.

T1 sequence (Q8K3T4 whole entry): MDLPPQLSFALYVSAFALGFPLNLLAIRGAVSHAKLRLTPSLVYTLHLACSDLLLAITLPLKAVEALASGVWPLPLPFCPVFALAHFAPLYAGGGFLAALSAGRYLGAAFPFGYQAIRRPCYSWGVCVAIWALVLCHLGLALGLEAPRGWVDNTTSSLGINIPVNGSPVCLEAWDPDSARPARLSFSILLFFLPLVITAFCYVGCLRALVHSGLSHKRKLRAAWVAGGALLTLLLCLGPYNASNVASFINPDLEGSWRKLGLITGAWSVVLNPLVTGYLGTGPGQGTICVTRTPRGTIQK

Structure (SMILES) | EC50 [nM]
CC#CC(CC(=O)O)c1ccc(OCC(CCC)COc2cccc(C(C)(C)C)c2)cc1 (stereo not shown) [Example 45, 3-{4-[2-(3-tert-Butylphenoxymethyl)pentyloxy]phenyl}hex-4-ynoic acid] | 6850
CC#CC(CC(=O)O)c1ccc(OCCC(C)Oc2ccc(C(F)(F)F)cc2)cc1 (single isomer, unassigned) [Example 23, 3-{4-[(S or R)-3-(4-Trifluoromethylphenoxy)butoxy]phenyl}hex-4-ynoic acid] | 210
CC#CC(CC(=O)O)c1ccc(OCC(CCC)COc2ccc(C(F)(F)F)cc2)cc1 (stereo not shown) [Example 44, 3-{4-[2-(4-Trifluoromethylphenoxymethyl)pentyloxy]phenyl}hex-4-ynoic acid] | 5100
CC#CC(CC(=O)O)c1ccc(OCCC(C)Oc2ccc(C(F)(F)F)cc2)cc1 (single isomer, unassigned) [Example 24, 3-{4-[(R or S)-3-(4-Trifluoromethylphenoxy)butoxy]phenyl}hex-4-ynoic acid] | 980
CC#CC(CC(=O)O)c1ccc(OCC(C)COc2ccc(C(C)(C)C)cc2Cl)cc1 (stereo not shown) [Example 37, 3-{4-[3-(4-tert-Butyl-2-chlorophenoxy)-2-methylpropoxy]phenyl}hex-4-ynoic acid] | 6010
CC#CC(CC(=O)O)c1ccc(OCC[C@H](C)Oc2ccc(C(F)(F)F)cc2Cl)cc1 (stereo partly drawn) [Example 32, 3-{4-[(S)-3-(2-Chloro-4-trifluoromethylphenoxy)butoxy]phenyl}hex-4-ynoic acid] | 770

Second part, the compound after the results:

EC50 [nM] | Structure (SMILES)
360 | CC#CC(CC(=O)O)c1ccc(OCCOc2ccccc2)cc1 (stereo not shown) [Example 17, 3-{4-[2-Phenoxyethoxy]phenyl}hex-4-ynoic acid]
730 | CC#CC(CC(=O)O)c1ccc(OCC(C)COc2ccccc2C(F)(F)F)cc1 (stereo not shown) [Example 38, 3-{4-[2-methyl-3-(2-trifluoromethylphenoxy)propoxy]phenyl}hex-4-ynoic acid]
400 | CC#CC(CC(=O)O)c1ccc(OCCCOc2cc(C(F)(F)F)cc(C(F)(F)F)c2)cc1 (stereo not shown) [Example 5, 3-{4-[3-(3,5-bis(Trifluoromethyl)phenoxy)propoxy]phenyl}hex-4-ynoic acid]
180 | CC#CC(CC(=O)O)c1ccc(OCCOc2ccccc2Cl)cc1 (stereo not shown) [Example 19, 3-{4-[2-(2-Chlorophenoxy)ethoxy]phenyl}hex-4-ynoic acid]
